The record followed here is PMC12649483, “Novel Chalcone Derivatives as Anti-Leishmania infantum Agents with Potential Synergistic Activity and In Silico Insights” (Antibiotics, 2025).

pIC50: −log10 of the molar value. “Also recorded” adds a separate entry of the source.

As a reminder, the pIC50 is the negative decadic logarithm of the IC50, by convention in mol/L. Read a low pIC50 as a large IC50. In general, CC50 refers to the concentration giving 50% cytotoxicity. Higher therefore signals lower toxicity to the cells. A word on the viability: it is the share of living cells, or the viability signal relative to a control.

For data set [1], the system named is L. infantum promastigotes. The experiment in a line: In vitro leishmanicidal activity (MTT) in promastigote forms. In kind it is cell-based, Leishmania infantum. Particulars: for pIC50: 72 h treatment, MTT. On the procedure:
(§1) Promastigote forms of L. infantum [IOC/L0579 (MHOM/BR/1974/PP75)] were cultured in Schneider’s medium (pH 7.0), supplemented with 20% fetal bovine serum (FBS), 1% human male urine, and 1% antibiotic solution (penicillin 200 U/mL and streptomycin 0.1 mg/mL), and maintained at 26 ± 1 °C (B.O.D SL 200—SOLAB, Piracicaba, SP, BR). The generation of extracellular axenic amastigote forms of L. infantum was based on protocols previously described by Debrabant et al. (2004), with modifications that included the use of Schneider’s medium adjusted to pH 5.5 and incubation at 37 °C (CO2 Series 3517-2, Cornelius, OR, USA).
The antileishmanial activity of compounds against metacyclic promastigote populations was assessed using the MTT (ACROS, Livingston, NJ, USA) assay for cell viability analysis. During testing, L. infantum (IOC/L0579) cultures were maintained in vitro in supplemented Schneider’s (Sigma-Aldrich, St. Louis, MO, USA) medium (pH 7.0) at 26 ± 1 °C in a biological oxygen demand (BOD) incubator.
(§2) In 96-well plates, initial screening was performed with serial dilutions (400 to 3.12 μM) of compounds 3a–c and 4a–c in duplicate. […] AmB was used as a positive control due to its established leishmanicidal activity, tested at concentrations ranging from 10 to 0.078 μM. Following 72 h-treatment of promastigotes and 24 h-treatment of amastigotes (accounting for the stationary phase culture characteristics), MTT was added for 4 h, followed by overnight incubation with sodium dodecyl sulfate (SDS) for spectrophotometric (Biotek model ELx800, Winooski, VT, USA) reading at 540 nm.

Data set [2] deals with L. infantum axenic amastigotes. The experiment in a line: In vitro leishmanicidal activity (MTT) in axenic amastigote forms. In kind it is cell-based, Leishmania infantum. The following applies: for pIC50: axenic amastigotes, 24 h treatment, MTT. On the procedure: as §1, §2
Another data set relates to human erythrocytes. The experiment in a line: Hemolytic activity in human erythrocytes. Format: cell-based. Particulars: for hemolytic activity (in words): tested concentrations 100–0.78 µM. On the procedure: The hemolytic activity of the compounds 4a–b was evaluated using an adaptation of the method described by Van de Ven (2012). Blood samples were adjusted to a 5% erythrocyte concentration, taking into account the hematocrit differences between males (40–50% ≈ 45%) and females (35–45% ≈ 40%). Compounds were added to 96-well plates at serial dilutions (100 to 0.78 µM), while AmB was tested at concentrations ranging from 400 to 3.12 µM as a reference. After 1 h of incubation at 37 °C in a 5% CO2 incubator, 100 µL of phosphate-buffered saline (PBS) was added to each well. Plates were centrifuged (112× g, 10 min, 25 °C), and supernatants were transferred to a mirrored 96-well plate. Hemoglobin release, reflecting erythrocyte lysis, was quantified by measuring absorbance at 540 nm. The assay was performed in three independent experiments, with results expressed as mean hemolytic concentration (HC50). Ultrapure water (Direct-Q UV, Guyancourt, France) served as the positive control (100% hemolysis).

The nature of data set [3]: Cytotoxicity (MTT) in peripheral blood mononuclear cells. Format: cell-based, human. Particulars: human, peripheral blood mononuclear cells (PBMCs), 24 h; for CC50 at 24 h: PBMCs, MTT; for viability at 24 h, 250 µM: at 250 μM; for viability at 24 h, 500 µM: at 500 μM. On the procedure:
(§3) For the PBMCs assay, blood samples from three healthy volunteers were processed using Ficoll density gradient centrifugation (980× g) for 20 min at 25 °C. The PBMCs layer was collected, washed with sterile 1× PBS (300× g, 10 min, 4 °C), and resuspended in RPMI medium (Sigma-Aldrich) supplemented with 10% FBS and 1% antibiotic. Adjusted PBMCs were plated in 96-well plates and incubated with serial dilutions of the compounds (1000 to 7.8 µM) and AmB (100 to 0.78 µM) for 24 h (37 °C, 5% CO2). MTT was then added for 4 h, followed by centrifugation (300× g, 10 min) at 4 °C, supernatant removal, and DMSO addition for spectrophotometric reading at 540 nm.

In a further data set the test system is human PBMCs. The description is as above. Format: cell-based. On the procedure: as §3
Data set [4] has as its system L. infantum axenic amastigotes. Description: Synergistic activity of 4b with AmB (Chou-Talalay) against axenic amastigotes. Format: cell-based, Leishmania infantum. The following applies: of each drug within the 1:5 AmB:4b combination. On the procedure:
The nature of the drug interaction (synergistic, additive, or antagonistic) was evaluated using the Chou–Talalay method implemented in CompuSyn software (ComboSyn Incorporated, version 1.0.1, 2006–2023). This approach calculates the Combination Index (CI) based on dose–response data fitted to the median-effect equation, with parameters including Dm (median-effect dose), m (slope of the dose–effect curve), and r (linear correlation coefficient). To characterize the interaction at different effect levels, CI values were determined for the following effective doses: ED50, ED75, and ED90, corresponding to 50%, 75%, and 90% inhibition of cell viability, respectively. Interactions were interpreted as synergistic when CI < 1, additive when CI = 1, and antagonistic when CI > 1. Additionally, the dose reduction index (DRI) was calculated to estimate the amount of dose reduction that could be achieved for each drug in combination while maintaining the same level of efficacy; […]

[5] abbreviates: at the highest concentration, 72 h.
Where [6] appears, read: at the lowest doses / lower concentrations, 72 h.

On to `C[C@@H]1[C@H](O)[C@@H](C)/C=C/C=C/C=C/C=C/C=C/C=C/C=C/[C@H](O[C@@H]2O[C@H](C)[C@@H](O)[C@H](N)[C@@H]2O)C[C@@H]2O[C@](O)(C[C@@H](O)C[C@@H](O)[C@H](O)CC[C@@H](O)C[C@@H](O)CC(=O)O[C@H]1C)C[C@H](O)[C@H]2C(=O)O` [AmB, Amphotericin B, reference compound], for which the pIC50 in data set [1] (Leishmania infantum) is 6.06; in data set [2] (Leishmania infantum), 6.05. The “50% hemolytic concentration (HC50)” value in the data set with human erythrocytes (5% erythrocytes, 1 h, 37 °C) was 193.4 µM. In data set [3], this molecule displayed a half-maximal cytotoxic concentration (CC50) at 24 h of 29.9 µM. Moreover, in data set [3] (at 25 μM, read-out: PBMC viability), the viability at 24 h, 25 µM is 61.9%. The viability at 24 h, 50 µM in data set [3] (at 50 μM, read-out: PBMC viability) is 40.8%. Moreover, in data set [3] (at 100 μM, read-out: PBMC viability), the viability at 24 h, 100 µM was 30.4%. This molecule also came in with a 50% cytotoxic concentration (CC50) in the data set with human PBMCs (PBMCs, 24 h, MTT) of 29.9 µM. Moreover, the “dose reduction index (DRI) at IC50” value in data set [4] was determined as 2.87.
With `Cc1ccc(C(=O)/C=C/c2ccc(OCC(=O)NC3CCCCC3)cc2)cc1` [Compound 4a, (E)-N-Cyclohexyl-2-(4-(3-oxo-3-p-tolylprop-1-enyl)phenoxy)acetamide], the pIC50 in data set [1] (Leishmania infantum) is 4.89; in data set [2] (Leishmania infantum), 4.71. The promastigote viability amounted to 20.77% in data set [1] (setting [5]) and 100% in data set [1] (setting [6]). The same molecule displayed a viability at 12.5 µM in data set [2] (Leishmania infantum, at 12.5 µM, 24 h) of 80.2%. The same molecule yielded a viability at 25 µM in data set [2] (Leishmania infantum, at 25 µM, 24 h) of 30.8%. Besides, the viability at 50 µM in data set [2] (Leishmania infantum, at 50 µM, 24 h) is 23.5%. The “hemolytic activity (in words)” value in the data set with human erythrocytes was “no hemolytic activity”. For the same molecule, it took 157 µM to reach half-maximal cytotoxicity in data set [3] (CC50 at 24 h). In data set [3] (at 125 μM, read-out: PBMC viability), the viability at 24 h, 125 µM came out at 61.2%. Further, in data set [3] (read-out: PBMC viability), the viability at 24 h, 250 µM turned out to be 33%. Besides, the viability at 24 h, 500 µM in data set [3] (read-out: PBMC viability) is 33.4%.
Take `COc1ccc(C(=O)/C=C/c2ccc(OCC(=O)NC3CCCCC3)cc2)cc1` [Compound 4b, (E)-N-Cyclohexyl-2-(4-(3-(4-methoxyphenyl)-3-oxoprop-1-enyl)phenoxy)acetamide]: the pIC50 was 5.15 in data set [1] (Leishmania infantum) and 5.47 in data set [2] (Leishmania infantum). Further, the viability at 3.12 µM in data set [1] (Leishmania infantum, at 3.12 µM, 72 h) was found to be 79.3%; in data set [2] (Leishmania infantum, at 3.12 µM, 24 h) it was 60.8%. The viability at 6.25 µM came to 34.2% in data set [1] (Leishmania infantum, at 6.25 µM, 72 h) and 9.12% in data set [2] (Leishmania infantum, at 6.25 µM, 24 h). This molecule also had a viability at 12.5 µM in data set [1] (Leishmania infantum, at 12.5 µM, 72 h) of 24.3%. The molecule also displayed a viability at 1.56 µM in data set [2] (Leishmania infantum, at 1.56 µM, 24 h) of 85.5%. Moreover, the “hemolytic activity (in words)” value in the data set on human erythrocytes is “no hemolytic activity”. Besides, in data set [3], the 50% cytotoxic concentration (CC50) at 24 h was 505 µM. Besides, in data set [3] (read-out: PBMC viability), the viability at 24 h, 250 µM was determined as 65.1%. Besides, in data set [3] (read-out: PBMC viability), the viability at 24 h, 500 µM was found to be 55.2%. Moreover, the viability at 24 h, 1000 µM in data set [3] (at 1000 μM, read-out: PBMC viability) is 31.8%. Besides, in the data set with human PBMCs (25–100 μM), the “PBMC cytotoxicity versus negative controls (in words)” value was “negligible cytotoxicity”. In addition, the “dose reduction index (DRI) at IC50” value in data set [4] was 1.28.
Take `O=C(COc1ccc(/C=C/C(=O)c2ccc(Br)cc2)cc1)NC1CCCCC1` [Compound 4c, (E)-2-(4-(3-(4-Bromophenyl)-3-oxoprop-1-enyl)phenoxy)-N-cyclohexylacetamide]: the pIC50 in data set [1] (Leishmania infantum) was 4.34. Further, the promastigote viability is given as 21.93% in data set [1] (setting [5]) and 100% in data set [1] (setting [6]). The “activity against amastigotes (in words)” value in data set [2] (24 h) is given as “no detectable activity; also recorded: no inhibitory effect”.
